According to paper PMC8162404, “Proteomimetic surface fragments distinguish targets by function” (Chemical Science, 2020):
pKd: −log10 of the molar value.

target: T1, CaM (Bos taurus, UniProt P62157); test: Pull-down assay with immobilized protein and LSM libraries; assay type: binding, bovine; conditions: H12 library; 1:2 stoichiometry assumed; read-out: Surface mapping KD (apparent)
T1 construct: made in house; host or cells: E. coli BL21 (DE3)
Procedure: Pull-down assays with immobilized test proteins and foldameric LSM libraries were carried out. Proteins were equilibrated with LSM probes, and equilibrium bound fractions (FB) were determined from the unbound fractions measured by HPLC-MS methods. Hits were corrected with background binding of the resin. The protocol allowed all binding events to equilibrate irrespective of affinity, specificity, and binding kinetics. This was essential to judge overall druggability and promiscuity. Importantly, the concentration of protein and the total concentration of foldameric LSMs were equimolar, which minimized competition between the probes. This experimental setup approximated independent binding of individual library members. Results were visualized as heat maps of dissociation constants (Fig. 3).
Pull-down assay and data analysis
Pull-down assay. LSM sublibraries were screened separately as previously described.(2) Experiments were performed in the following buffers: (i) 20 mM pH 7.4 HEPES, 150 mM NaCl, 5 mM CaCl2 for CaM; (ii) 50 mM pH 7.4 HEPES, 150 mM NaCl, 1 mM TCEP, 1 mM CaCl2 for S100 proteins; (iii) 20 mM pH 7.4 HEPES, 150 mM NaCl, 1 mM TCEP for Gal-1 and (iv) 20 mM pH 7.4 HEPES, 150 mM NaCl for RecQ-WH. Assays were performed in paper filter spin cups (Thermo Scientific) with sample volumes of 100 µl. Hexahistidine-tagged proteins were immobilized on previously washed Co-NTA resin (TALON, Takara Bio USA, Inc., […]
LSM sublibrary was added, in which each of the 64 library members were used at a concentration of 1 µM. Samples were incubated at room temperature for 30 min with shaking at 100 rpm. Then, samples were centrifuged at 1000 rpm for 2 min and washed with 100 µl pull-down buffer to remove unbound compounds.
The control experiments were performed using the same compounds and the resin but without the immobilized protein. In case of competitive assays, competitor peptides were added to LSM sublibrary samples in 200 µM final concentration. In the case of Gal-1, lactose (competitor) was used in a concentration of 10 mM. Experiments were performed at least twice. Mean […]
LC-MS methods and parameters. HPLC/ESI-MS analysis was used to characterize the samples from the pull-down assay. LC-MS analysis was performed with a Thermo Scientific Dionex UltiMate 3000 HPLC system interfaced to an LTQ ion trap mass spectrometer (Thermo Electron Corp., San Jose, CA, USA). Samples were injected onto an Aeris Widepore XB-C18 (250 x 4.6 mm) analytical HPLC column using gradient elution 5-80 % solution B during 25 minutes. For pull-down samples, eluent composition was 0.1% acetic acid in distilled water (Solution A) and 0.1% acetic acid in acetonitrile (solution B). Mass spectra were acquired in full scan mode from 200 to 2000 m/z range. For overlapping peaks, selective reaction monitoring (SRM) was […]
MS data analysis. Thermo Xcalibur 2.2 software was used for peak identification and integration. The majority of the foldameric fragments could be resolved independently via HPLC-MS/MS measurements based on molecular weight, MS fragmentation pattern and retention time. Peaks of some foldamers with β3-hIle or β3-hLeu in position R2 could not be resolved, these were integrated and averaged. In the processing method, each sample component was associated to a chromatographic peak based on previously identified mass (m/z) and retention time (ref (2) and Table S7-10). Using ICIS peak detection algorithm, the general detection and integration criteria were: smoothing points: 5, baseline window: 80, area noise factor: 5, peak noise factor: 10. Using these processing setups, all raw data files were reprocessed together and analyzed. Errors in peak identification during the automatic processing were corrected manually.
Calculation of the discussed parameters
1. Bound fractions (FB.) were calculated from the HPLC-MS intensity loss of the LSM probes compared to the control where no protein was immobilized to the resin: […]

Row | SMILES | pKd
1 | NC(=O)[C@H]1CCC[C@@H]1NC(=O)[C@H]1CCC[C@@H]1NC(=O)C[C@H](CC(=O)O)NC(=O)[C@H]1CCC[C@@H]1NC(=O)[C@H]1CCC[C@@H]1NC(=O)C[C@H](CO)NC(=O)[C@H]1CCC[C@@H]1NC(=O)[C@H]1CCC[C@@H]1N [H12 SD] | 3.36
2 | CSCC[C@@H](CC(=O)N[C@H]1CCC[C@@H]1C(=O)N[C@H]1CCC[C@@H]1C(N)=O)NC(=O)[C@H]1CCC[C@@H]1NC(=O)[C@H]1CCC[C@@H]1NC(=O)C[C@H](CO)NC(=O)[C@H]1CCC[C@@H]1NC(=O)[C@H]1CCC[C@@H]1N [H12 SM] | 3.47
3 | NC(=O)C[C@@H](CC(=O)N[C@H]1CCC[C@@H]1C(=O)N[C@H]1CCC[C@@H]1C(N)=O)NC(=O)[C@H]1CCC[C@@H]1NC(=O)[C@H]1CCC[C@@H]1NC(=O)C[C@H](CO)NC(=O)[C@H]1CCC[C@@H]1NC(=O)[C@H]1CCC[C@@H]1N [H12 SN] | 3.31
4 | NC(=O)[C@H]1CCC[C@@H]1NC(=O)[C@H]1CCC[C@@H]1NC(=O)C[C@H](CO)NC(=O)[C@H]1CCC[C@@H]1NC(=O)[C@H]1CCC[C@@H]1NC(=O)C[C@H](CO)NC(=O)[C@H]1CCC[C@@H]1NC(=O)[C@H]1CCC[C@@H]1N [H12 SS] | 3.32
5 | CC(C)[C@@H](CC(=O)N[C@H]1CCC[C@@H]1C(=O)N[C@H]1CCC[C@@H]1C(N)=O)NC(=O)[C@H]1CCC[C@@H]1NC(=O)[C@H]1CCC[C@@H]1NC(=O)C[C@H](CO)NC(=O)[C@H]1CCC[C@@H]1NC(=O)[C@H]1CCC[C@@H]1N [H12 SV] | 3.52
6 | NC(=O)[C@H]1CCC[C@@H]1NC(=O)[C@H]1CCC[C@@H]1NC(=O)C[C@H](Cc1ccc(O)cc1)NC(=O)[C@H]1CCC[C@@H]1NC(=O)[C@H]1CCC[C@@H]1NC(=O)C[C@H](CO)NC(=O)[C@H]1CCC[C@@H]1NC(=O)[C@H]1CCC[C@@H]1N [H12 SY] | 3.45
7 | C[C@@H](CC(=O)N[C@H]1CCC[C@@H]1C(=O)N[C@H]1CCC[C@@H]1C(N)=O)NC(=O)[C@H]1CCC[C@@H]1NC(=O)[C@H]1CCC[C@@H]1NC(=O)C[C@@H](NC(=O)[C@H]1CCC[C@@H]1NC(=O)[C@H]1CCC[C@@H]1N)[C@@H](C)O [H12 TA] | 3.41
8 | CC[C@H](C)[C@@H](CC(=O)N[C@H]1CCC[C@@H]1C(=O)N[C@H]1CCC[C@@H]1C(N)=O)NC(=O)[C@H]1CCC[C@@H]1NC(=O)[C@H]1CCC[C@@H]1NC(=O)C[C@@H](NC(=O)[C@H]1CCC[C@@H]1NC(=O)[C@H]1CCC[C@@H]1N)[C@@H](C)O [H12 TI] | 3.96
9 | CC(C)C[C@@H](CC(=O)N[C@H]1CCC[C@@H]1C(=O)N[C@H]1CCC[C@@H]1C(N)=O)NC(=O)[C@H]1CCC[C@@H]1NC(=O)[C@H]1CCC[C@@H]1NC(=O)C[C@@H](NC(=O)[C@H]1CCC[C@@H]1NC(=O)[C@H]1CCC[C@@H]1N)[C@@H](C)O [H12 TL] | 3.96
10 | CSCC[C@@H](CC(=O)N[C@H]1CCC[C@@H]1C(=O)N[C@H]1CCC[C@@H]1C(N)=O)NC(=O)[C@H]1CCC[C@@H]1NC(=O)[C@H]1CCC[C@@H]1NC(=O)C[C@@H](NC(=O)[C@H]1CCC[C@@H]1NC(=O)[C@H]1CCC[C@@H]1N)[C@@H](C)O [H12 TM] | 3.70
11 | C[C@@H](O)[C@@H](CC(=O)N[C@H]1CCC[C@@H]1C(=O)N[C@H]1CCC[C@@H]1C(=O)N[C@@H](CCC(N)=O)CC(=O)N[C@H]1CCC[C@@H]1C(=O)N[C@H]1CCC[C@@H]1C(N)=O)NC(=O)[C@H]1CCC[C@@H]1NC(=O)[C@H]1CCC[C@@H]1N [H12 TQ] | 3.35
12 | CC(C)[C@@H](CC(=O)N[C@H]1CCC[C@@H]1C(=O)N[C@H]1CCC[C@@H]1C(N)=O)NC(=O)[C@H]1CCC[C@@H]1NC(=O)[C@H]1CCC[C@@H]1NC(=O)C[C@@H](NC(=O)[C@H]1CCC[C@@H]1NC(=O)[C@H]1CCC[C@@H]1N)[C@@H](C)O [H12 TV] | 3.68
13 | C[C@@H](O)[C@@H](CC(=O)N[C@H]1CCC[C@@H]1C(=O)N[C@H]1CCC[C@@H]1C(=O)N[C@H](CC(=O)N[C@H]1CCC[C@@H]1C(=O)N[C@H]1CCC[C@@H]1C(N)=O)Cc1ccc(O)cc1)NC(=O)[C@H]1CCC[C@@H]1NC(=O)[C@H]1CCC[C@@H]1N [H12 TY] | 3.88
